In the assay the test system is T1, cathepsin B/X (cysteine peptidase of the spine aqueous extract).
T1 construct: gene CTSB; anti-cathepsin B bands between 60 and 80 kDa
Description: fluorogenic substrate hydrolysis (MCA release), non-linear regression. Particulars: crude spine extract; 100 mM ammonium acetate, pH 7.4, 30°C; preincubated with 2 mM DTT. It counts as biochemical, Echinometra lucunter. The source says:
fluorogenic substrate hydrolysis (MCA release), non-linear regression on cathepsin B/X (cysteine peptidase of the spine aqueous extract)

In general, Km refers to the concentration of substrate that gives half-maximal velocity.

Regarding `Cc1cc(=O)oc2cc(NC(=O)[C@H](CCCNC(=N)N)NC(=O)OCc3ccccc3)ccc12` [Z-R-MCA, carbobenzoxy-L-arginine-7-amino-4-methylcoumarin], the Km turned out to be 147 ± 40 µM.

Source of the values: article PMC3880103, “Cathepsin B/X is secreted by Echinometra lucunter sea urchin spines, a structure rich in granular cells and toxins” (The Journal of Venomous Animals and Toxins Including …, 2013).
